Assay results reported in ChEMBL document CHEMBL5375973, “Design and Synthesis of Novel Near-Infrared Fluorescence Probes Based on an Open Conformation of a Cytochrome P450 1B1 Complex for Molecular Imaging of Colorectal Tumors” (J Med Chem, 2023).

Columns and labels:
[1] = molecular target: T1, Cytochrome P450 1A2 (Homo sapiens, UniProt P05177); assay: Inhibition of recombinant CYP1A2 (unknown origin) using 7-ethoxyresorufin as substrate preincubated for 5 mins followed by NADPH addition incubated for 50 mins by EROD assay; format: ADME
T1 sequence (P05177 whole entry): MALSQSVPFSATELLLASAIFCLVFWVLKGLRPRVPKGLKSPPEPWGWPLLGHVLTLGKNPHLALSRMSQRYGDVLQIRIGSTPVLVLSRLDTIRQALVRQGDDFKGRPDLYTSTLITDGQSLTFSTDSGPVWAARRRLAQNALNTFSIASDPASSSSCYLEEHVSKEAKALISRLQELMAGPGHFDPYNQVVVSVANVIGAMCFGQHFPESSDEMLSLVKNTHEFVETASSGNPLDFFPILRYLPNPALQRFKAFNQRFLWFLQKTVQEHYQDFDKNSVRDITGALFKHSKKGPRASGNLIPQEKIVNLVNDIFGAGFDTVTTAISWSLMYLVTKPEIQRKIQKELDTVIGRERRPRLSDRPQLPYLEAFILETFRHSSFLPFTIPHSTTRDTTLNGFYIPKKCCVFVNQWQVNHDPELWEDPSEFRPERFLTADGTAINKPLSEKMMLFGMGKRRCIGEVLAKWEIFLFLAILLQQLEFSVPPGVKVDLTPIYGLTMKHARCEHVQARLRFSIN

[2] = molecular target: T2, Cytochrome P450 1B1 (Homo sapiens, UniProt Q16678); assay: Inhibition of recombinant CYP1B1 (unknown origin) using 7-ethoxyresorufin as substrate preincubated for 5 mins followed by NADPH addition incubated for 35 mins by EROD assay; format: ADME
T2 sequence (Q16678 whole entry): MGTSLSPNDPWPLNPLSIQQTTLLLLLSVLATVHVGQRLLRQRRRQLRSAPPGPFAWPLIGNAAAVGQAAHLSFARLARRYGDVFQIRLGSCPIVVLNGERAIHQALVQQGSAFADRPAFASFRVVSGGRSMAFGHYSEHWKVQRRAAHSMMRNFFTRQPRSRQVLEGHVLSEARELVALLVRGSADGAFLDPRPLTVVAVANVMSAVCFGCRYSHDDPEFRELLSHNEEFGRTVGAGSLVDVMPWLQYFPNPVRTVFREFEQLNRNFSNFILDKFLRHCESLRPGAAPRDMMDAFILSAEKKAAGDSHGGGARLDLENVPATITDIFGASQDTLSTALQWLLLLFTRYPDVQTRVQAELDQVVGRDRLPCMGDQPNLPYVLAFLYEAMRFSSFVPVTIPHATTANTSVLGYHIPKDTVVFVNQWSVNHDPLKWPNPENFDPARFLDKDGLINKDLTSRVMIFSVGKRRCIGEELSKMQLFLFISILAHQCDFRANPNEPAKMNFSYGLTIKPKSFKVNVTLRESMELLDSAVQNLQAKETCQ

[3] = tested on: HFF-1; assay: Cytotoxicity against human HFF-1 cells at 1 to 10 uM incubated for 24 hrs by MTT assay; format: toxicity, cell-based; details: hff-1, 24 h, dose 1-10 µM
[4] = tested on: HCT-15; assay: Cytotoxicity against human HCT-15 cells assessed as cell viability at 10 uM incubated for 24 hrs by MTT assay; format: functional; details: read-out: Activity
[5] = molecular target: T2, Cytochrome P450 1B1; assay: Binding affinity to CYP1B1 in human HCT-15 cells assessed as apparent dissociation constant incubated for 1 hr by flow cytometry analysis; format: ADME, cell-based; details: read-out: Kd(app)
[6] = Stability of the compound assessed as drug degradation observed after 24 hrs by HPLC analysis; format: physicochemical

IC50 [1]	IC50 [2]	Compound	further results
> 2000 nM	–	COc1ccc(OC)c2c1c(OC)cc1c(=O)cc(-c3cc(F)cc(NC(=O)COCCOCCN)c3)oc12	–
–	2.03 nM	COc1ccc(OC)c2c1c(OC)cc1c(=O)cc(-c3cc(N)cc(F)c3)oc12	–
–	2.47 nM	COc1ccc(OC)c2c1c(OC)cc1c(=O)cc(-c3ccc(N)c(F)c3)oc12	–
–	–	CCN1/C(=C/C=C/C=C/C2=[N+](CCCCCC(=O)NCCCCCCCCC(=O)Nc3cc(F)cc(-c4cc(=O)c5cc(OC)c6c(OC)ccc(OC)c6c5o4)c3)c3ccc4c(S(=O)(=O)[O-])cc(S(=O)(=O)O)cc4c3C2(C)C)C(C)(C)c2c1ccc1c(S(=O)(=O)O)cc(S(=O)(=O)O)cc21	Activity [3]: Non-Toxic; viability at 10 µM [4]: > 80%; Kd [5]: 213 nM; Stability [6]: Stable
–	95 nM	COc1ccc(OC)c2c1c(OC)cc1c(=O)cc(-c3cc(O)cc(F)c3)oc12	–
1840 nM	–	COc1ccc(OC)c2c1c(OC)cc1c(=O)cc(-c3cc(F)cc(OCCOCCOCCN)c3)oc12	–
514 nM	–	COc1ccc(OC)c2c1c(OC)cc1c(=O)cc(-c3cc(F)cc(NC(=O)CCCCN)c3)oc12	–
> 2000 nM	–	COc1ccc(OC)c2c1c(OC)cc1c(=O)cc(-c3cc(F)cc(NC(=O)CCCCCCCCN)c3)oc12	–
